Experimental data published in PubChem BioAssay (NCI).
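Interpolation was linear, between the two tested concentrations surrounding the appropriate level; five concentrations were tested over 48 hours in 96-well plates. Abbreviation: GI50, concentration required for 50% inhibition of growth. TGI denotes the concentration required for complete inhibition of growth.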

Columns and labels:
Test in all cases: growth of human tumour cells (NCI), 48 h
786-0 renal = tested on: 786-0 renal
A498 renal = tested on: A498 renal
A549 NSCLC = tested on: A549 NSCLC
ACHN renal = tested on: ACHN renal
BT-549 breast = tested on: BT-549 breast
CAKI-1 renal = tested on: CAKI-1 renal
CCRF-CEM leukemia = tested on: CCRF-CEM leukemia
COLO 205 colon = tested on: COLO 205 colon
DU-145 prostate = tested on: DU-145 prostate
EKVX NSCLC = tested on: EKVX NSCLC
HCC-2998 colon = tested on: HCC-2998 colon
HCT-15 colon = tested on: HCT-15 colon
HL-60(TB) leukemia = tested on: HL-60(TB) leukemia
HOP-62 NSCLC = tested on: HOP-62 NSCLC
HOP-92 NSCLC = tested on: HOP-92 NSCLC
HS 578T breast = tested on: HS 578T breast
HT29 colon = tested on: HT29 colon
IGROV1 ovarian = tested on: IGROV1 ovarian
K-562 leukemia = tested on: K-562 leukemia
KM12 colon = tested on: KM12 colon
M14 melanoma = tested on: M14 melanoma
MALME-3M melanoma = tested on: MALME-3M melanoma
MCF7 breast = tested on: MCF7 breast
MDA-MB-231 breast = tested on: MDA-MB-231 breast
MDA-MB-435 = tested on: MDA-MB-435
MOLT-4 leukemia = tested on: MOLT-4 leukemia
NCI-H226 lung = tested on: NCI-H226 lung
NCI-H460 lung = tested on: NCI-H460 lung
NCI-H522 lung = tested on: NCI-H522 lung
NCI/ADR-RES ovarian = tested on: NCI/ADR-RES ovarian
OVCAR-3 ovarian = tested on: OVCAR-3 ovarian
OVCAR-4 ovarian = tested on: OVCAR-4 ovarian
OVCAR-5 ovarian = tested on: OVCAR-5 ovarian
OVCAR-8 ovarian = tested on: OVCAR-8 ovarian
PC-3 prostate = tested on: PC-3 prostate
RPMI-8226 leukemia = tested on: RPMI-8226 leukemia
RXF 393 renal = tested on: RXF 393 renal
SF-268 CNS = tested on: SF-268 CNS
SF-295 CNS = tested on: SF-295 CNS
SF-539 CNS = tested on: SF-539 CNS
SK-MEL-2 melanoma = tested on: SK-MEL-2 melanoma
SK-MEL-28 melanoma = tested on: SK-MEL-28 melanoma
SK-MEL-5 melanoma = tested on: SK-MEL-5 melanoma
SK-OV-3 ovarian = tested on: SK-OV-3 ovarian
SN12C renal = tested on: SN12C renal
SNB-19 CNS = tested on: SNB-19 CNS
SNB-75 CNS = tested on: SNB-75 CNS
SR leukemia = tested on: SR leukemia
SW-620 colon = tested on: SW-620 colon
T-47D breast = tested on: T-47D breast
TK-10 renal = tested on: TK-10 renal
U251 CNS = tested on: U251 CNS
UACC-257 melanoma = tested on: UACC-257 melanoma
UACC-62 melanoma = tested on: UACC-62 melanoma
UO-31 renal = tested on: UO-31 renal

Q: With CCNC(=O)Oc1ccc(/C(=C(/C)c2ccccc2)c2ccc(OCCN3CCCCCC3)cc2)cc1 as the molecule, how does the GI50 (786-0 renal) read?
A: 1.71 µM

Q: What about the TGI (786-0 renal) of the same molecule?
A: 3.46 µM

Q: What about the GI50 (A498 renal) of the same molecule?
A: 10.4 µM

Q: What about the TGI (A498 renal) of the same molecule?
A: 24.7 µM

Q: What about the GI50 (A549 NSCLC) of the same molecule?
A: 3.26 µM

Q: What about the TGI (A549 NSCLC) of the same molecule?
A: 13.1 µM

Q: What about the GI50 (ACHN renal) of the same molecule?
A: 3.37 µM

Q: What about the TGI (ACHN renal) of the same molecule?
A: 10.6 µM

Q: And the GI50 (BT-549 breast)?
A: 1.71 µM

Q: And the TGI (BT-549 breast)?
A: 3.38 µM

Q: What about the GI50 (CAKI-1 renal) of the same molecule?
A: 1.94 µM

Q: And the TGI (CAKI-1 renal)?
A: 4.28 µM

Q: What about the GI50 (CCRF-CEM leukemia) of the same molecule?
A: 2.92 µM

Q: What about the TGI (CCRF-CEM leukemia) of the same molecule?
A: 28.7 µM

Q: What about the GI50 (COLO 205 colon) of the same molecule?
A: 1.56 µM

Q: And the TGI (COLO 205 colon)?
A: 2.98 µM

Q: What about the GI50 (DU-145 prostate) of the same molecule?
A: 4.92 µM

Q: And the TGI (DU-145 prostate)?
A: 20.3 µM

Q: What about the GI50 (EKVX NSCLC) of the same molecule?
A: 3.24 µM

Q: And the TGI (EKVX NSCLC)?
A: 12.2 µM

Q: What about the GI50 (HCC-2998 colon) of the same molecule?
A: 2 µM

Q: And the TGI (HCC-2998 colon)?
A: 3.89 µM

Q: And the GI50 (HCT-15 colon)?
A: 1.53 µM

Q: And the TGI (HCT-15 colon)?
A: 3.33 µM

Q: What about the GI50 (HL-60(TB) leukemia) of the same molecule?
A: 1.8 µM

Q: What about the TGI (HL-60(TB) leukemia) of the same molecule?
A: 6.15 µM

Q: What about the GI50 (HOP-62 NSCLC) of the same molecule?
A: 2.05 µM

Q: What about the TGI (HOP-62 NSCLC) of the same molecule?
A: 4.82 µM

Q: What about the GI50 (HOP-92 NSCLC) of the same molecule?
A: 1.23 µM

Q: What about the TGI (HOP-92 NSCLC) of the same molecule?
A: 4.62 µM

Q: What about the GI50 (HS 578T breast) of the same molecule?
A: 1.91 µM

Q: What about the TGI (HS 578T breast) of the same molecule?
A: 4.67 µM

Q: What about the GI50 (HT29 colon) of the same molecule?
A: 1.27 µM

Q: And the TGI (HT29 colon)?
A: 3.27 µM

Q: What about the GI50 (IGROV1 ovarian) of the same molecule?
A: 3.64 µM

Q: And the TGI (IGROV1 ovarian)?
A: 14.8 µM

Q: And the GI50 (K-562 leukemia)?
A: 1.82 µM

Q: And the TGI (K-562 leukemia)?
A: > 100 µM

Q: And the GI50 (KM12 colon)?
A: 3 µM

Q: What about the TGI (KM12 colon) of the same molecule?
A: 11.1 µM

Q: What about the GI50 (M14 melanoma) of the same molecule?
A: 1.8 µM

Q: What about the TGI (M14 melanoma) of the same molecule?
A: 3.62 µM

Q: And the GI50 (MALME-3M melanoma)?
A: 1.8 µM

Q: What about the TGI (MALME-3M melanoma) of the same molecule?
A: 3.47 µM

Q: What about the TGI (MCF7 breast) of the same molecule?
A: 2.6 µM

Q: What about the GI50 (MDA-MB-231 breast) of the same molecule?
A: 2.25 µM

Q: What about the TGI (MDA-MB-231 breast) of the same molecule?
A: 4.84 µM

Q: What about the GI50 (MDA-MB-435) of the same molecule?
A: 1.7 µM

Q: What about the TGI (MDA-MB-435) of the same molecule?
A: 3.29 µM

Q: What about the GI50 (MOLT-4 leukemia) of the same molecule?
A: 2.4 µM

Q: And the TGI (MOLT-4 leukemia)?
A: 12.3 µM

Q: What about the GI50 (NCI-H226 lung) of the same molecule?
A: 2.97 µM

Q: And the TGI (NCI-H226 lung)?
A: 10.8 µM

Q: And the GI50 (NCI-H460 lung)?
A: 1.99 µM

Q: What about the TGI (NCI-H460 lung) of the same molecule?
A: 4.14 µM

Q: And the GI50 (NCI-H522 lung)?
A: 1.8 µM

Q: What about the TGI (NCI-H522 lung) of the same molecule?
A: 3.75 µM

Q: What about the GI50 (NCI/ADR-RES ovarian) of the same molecule?
A: 2.22 µM

Q: And the TGI (NCI/ADR-RES ovarian)?
A: 6.4 µM

Q: What about the GI50 (OVCAR-3 ovarian) of the same molecule?
A: 2.87 µM

Q: And the TGI (OVCAR-3 ovarian)?
A: 8.2 µM

Q: And the GI50 (OVCAR-4 ovarian)?
A: 3.05 µM

Q: And the TGI (OVCAR-4 ovarian)?
A: 11.8 µM

Q: And the GI50 (OVCAR-5 ovarian)?
A: 4.35 µM

Q: What about the TGI (OVCAR-5 ovarian) of the same molecule?
A: 17.8 µM

Q: What about the GI50 (OVCAR-8 ovarian) of the same molecule?
A: 3.07 µM

Q: What about the TGI (OVCAR-8 ovarian) of the same molecule?
A: 10.7 µM

Q: What about the GI50 (PC-3 prostate) of the same molecule?
A: 1.74 µM

Q: And the TGI (PC-3 prostate)?
A: 4.19 µM

Q: And the GI50 (RPMI-8226 leukemia)?
A: 1.95 µM

Q: What about the TGI (RPMI-8226 leukemia) of the same molecule?
A: 4.65 µM

Q: What about the GI50 (RXF 393 renal) of the same molecule?
A: 1.65 µM

Q: What about the TGI (RXF 393 renal) of the same molecule?
A: 3.27 µM

Q: What about the GI50 (SF-268 CNS) of the same molecule?
A: 4 µM

Q: What about the TGI (SF-268 CNS) of the same molecule?
A: 18.6 µM

Q: What about the GI50 (SF-295 CNS) of the same molecule?
A: 1.98 µM

Q: What about the TGI (SF-295 CNS) of the same molecule?
A: 3.94 µM

Q: And the GI50 (SF-539 CNS)?
A: 1.74 µM

Q: What about the TGI (SF-539 CNS) of the same molecule?
A: 3.21 µM

Q: And the GI50 (SK-MEL-2 melanoma)?
A: 2.48 µM

Q: What about the TGI (SK-MEL-2 melanoma) of the same molecule?
A: 6.76 µM

Q: And the GI50 (SK-MEL-28 melanoma)?
A: 1.8 µM

Q: What about the TGI (SK-MEL-28 melanoma) of the same molecule?
A: 3.62 µM

Q: And the GI50 (SK-MEL-5 melanoma)?
A: 1.74 µM

Q: What about the TGI (SK-MEL-5 melanoma) of the same molecule?
A: 3.16 µM

Q: What about the GI50 (SK-OV-3 ovarian) of the same molecule?
A: 2.74 µM

Q: And the TGI (SK-OV-3 ovarian)?
A: 8.06 µM

Q: And the GI50 (SN12C renal)?
A: 2.56 µM

Q: And the TGI (SN12C renal)?
A: 8.36 µM

Q: What about the GI50 (SNB-19 CNS) of the same molecule?
A: 3.82 µM

Q: What about the TGI (SNB-19 CNS) of the same molecule?
A: 13.4 µM

Q: And the GI50 (SNB-75 CNS)?
A: 1.85 µM

Q: What about the TGI (SNB-75 CNS) of the same molecule?
A: 4.36 µM

Q: What about the GI50 (SR leukemia) of the same molecule?
A: 2.04 µM

Q: What about the TGI (SR leukemia) of the same molecule?
A: 6.59 µM

Q: What about the GI50 (SW-620 colon) of the same molecule?
A: 2.11 µM

Q: What about the TGI (SW-620 colon) of the same molecule?
A: 5.15 µM

Q: What about the GI50 (T-47D breast) of the same molecule?
A: 1.15 µM

Q: And the TGI (T-47D breast)?
A: 6.04 µM

Q: And the GI50 (TK-10 renal)?
A: 5.83 µM

Q: What about the TGI (TK-10 renal) of the same molecule?
A: 19.9 µM

Q: And the GI50 (U251 CNS)?
A: 1.58 µM

Q: What about the TGI (U251 CNS) of the same molecule?
A: 3.2 µM

Q: And the GI50 (UACC-257 melanoma)?
A: 1.88 µM

Q: And the TGI (UACC-257 melanoma)?
A: 3.87 µM

Q: And the GI50 (UACC-62 melanoma)?
A: 1.91 µM

Q: And the TGI (UACC-62 melanoma)?
A: 3.87 µM

Q: And the GI50 (UO-31 renal)?
A: 1.52 µM

Q: What about the TGI (UO-31 renal) of the same molecule?
A: 4.43 µM
